In article PMC11528044 (Nature Communications, 2024):

How the values were obtained:
[1] = tested on: CYP5122A1; details: 50 μM substrate, TbCPR, NADPH, pH 6.2, 37 °C
[2] = target: L. donovani CYP51 (Leishmania donovani, UniProt A0A3S7WRS7); assay: UV-Vis difference binding spectra of ligands with purified recombinant CYP51
[3] = tested on: CYP51; details: 50 μM substrate, TbCPR, NADPH, pH 6.2, 37 °C
[4] = target: T1, L. donovani CYP5122A1 (Leishmania donovani, UniProt A0A3S7X0B6); assay: UV-Vis difference binding spectra of ligands with purified recombinant CYP5122A1
T1 sequence (A0A3S7X0B6 61-592): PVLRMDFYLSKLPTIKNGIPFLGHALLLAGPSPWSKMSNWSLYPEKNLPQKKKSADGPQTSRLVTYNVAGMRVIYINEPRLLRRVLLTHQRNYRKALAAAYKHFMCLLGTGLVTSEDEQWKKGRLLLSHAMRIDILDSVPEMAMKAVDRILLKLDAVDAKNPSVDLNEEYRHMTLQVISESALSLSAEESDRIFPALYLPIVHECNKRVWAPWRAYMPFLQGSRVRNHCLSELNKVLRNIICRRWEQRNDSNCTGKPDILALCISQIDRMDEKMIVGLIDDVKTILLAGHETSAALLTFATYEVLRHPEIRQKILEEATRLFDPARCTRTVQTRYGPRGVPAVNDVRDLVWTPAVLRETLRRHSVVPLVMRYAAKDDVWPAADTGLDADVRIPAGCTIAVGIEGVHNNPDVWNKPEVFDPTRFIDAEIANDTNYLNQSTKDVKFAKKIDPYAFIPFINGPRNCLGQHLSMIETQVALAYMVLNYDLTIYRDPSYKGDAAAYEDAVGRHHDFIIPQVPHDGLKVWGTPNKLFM

[5] = tested on: L. donovani LV82 promastigotes; assay: microbe, parasite or virus in culture; details: Leishmania donovani, 72 h, read-out: EC50 (L. donovani)
[6] = target: T2, LdCYP5122A1 (Leishmania donovani, UniProt A0A3S7X0B6); assay: biochemical
T2 sequence (A0A3S7X0B6 61-592): T1 sequence (A0A3S7X0B6 61-592)

[7] = tested on: L. donovani LV82 promastigote cultures; assay: Microscopic counts of LV82 promastigote cultures; assay type: cell-based, Leishmania donovani; details: LV82 promastigotes, cell counts daily for three days
[8] = target: T3, LdCYP51 (Leishmania donovani, UniProt A0A3S7WRS7); assay: biochemical
T3 sequence (A0A3S7WRS7 32-480): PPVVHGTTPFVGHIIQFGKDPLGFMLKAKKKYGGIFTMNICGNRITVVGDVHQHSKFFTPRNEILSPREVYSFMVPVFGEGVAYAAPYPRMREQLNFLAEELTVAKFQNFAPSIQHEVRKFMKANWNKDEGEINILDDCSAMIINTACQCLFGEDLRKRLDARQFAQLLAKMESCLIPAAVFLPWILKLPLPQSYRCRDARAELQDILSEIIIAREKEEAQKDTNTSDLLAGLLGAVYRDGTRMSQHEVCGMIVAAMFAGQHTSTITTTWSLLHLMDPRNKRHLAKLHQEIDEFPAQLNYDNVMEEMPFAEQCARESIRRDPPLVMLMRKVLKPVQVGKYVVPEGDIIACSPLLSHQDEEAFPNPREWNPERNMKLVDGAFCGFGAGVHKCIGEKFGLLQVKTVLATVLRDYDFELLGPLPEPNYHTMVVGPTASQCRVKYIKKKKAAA

[9] = target: T2, LdCYP5122A1
[10] = tested on: L. donovani strain 1S2D promastigotes (Ld1S WT and CYP5122A1 mutants); details: promastigote growth, 48 hours
[11] = tested on: sterol profile of LV82 promastigotes; assay: LC-MS/MS sterol analysis of inhibitor-treated LV82 promastigotes; assay type: cell-based, Leishmania donovani; details: 20 μM clotrimazole vs. DMSO, 24 hr
[12] = tested on: intracellular L. major and L. amazonensis; details: cited from earlier work
[13] = tested on: multiple strains of L. donovani and L. infantum promastigotes; details: 1 μg/mL; cited from earlier work
[14] = target: T3, LdCYP51; details: 100 μM

Chain of L. donovani CYP51 (A0A3S7WRS7 32-480): as above

| Compound | Binding mode with CYP51 (difference binding spectrum) [2] | Binding mode with CYP5122A1 (difference binding spectrum) [4] | EC50 [5] | IC50 [6] | IC50 [8] | SI (selectivity index) = IC50 against LdCYP5122A1/IC50 against LdCYP51 [9] | further results |
| --- | --- | --- | --- | --- | --- | --- | --- |
| CC(C)=CCC[C@@H](C)[C@H]1CC[C@@]2(C)C3=C(CC[C@]12C)[C@@]1(C)CC[C@H](O)[C@@H](C)[C@@H]1CC3 [4,14-DMZ, 4α,14α-Dimethylzymosterol] | typical type I binding | type I binding |  |  |  |  | Oxidation by reconstituted CYP5122A1 [1]: metabolized by this enzyme; Oxidation by reconstituted CYP51 [3]: C14-demethylation |
| CC(C)=CCC[C@@H](C)[C@H]1CC[C@H]2C3=CC=C4C[C@@H](O)CC[C@]4(C)[C@H]3CC[C@]12C [7-Dehydrodesmosterol] | atypical difference binding spectrum | did not induce any appreciable change |  |  |  |  | Oxidation by reconstituted CYP5122A1 [1]: No oxidation metabolite formation; Oxidation by reconstituted CYP51 [3]: oxidized by CYP51 to form hydroxylated metabolites |
| C[C@@H]1[C@H](O)[C@@H](C)/C=C/C=C/C=C/C=C/C=C/C=C/C=C/[C@H](O[C@@H]2O[C@H](C)[C@@H](O)[C@H](N)[C@@H]2O)C[C@@H]2O[C@](O)(C[C@@H](O)C[C@@H](O)[C@H](O)CC[C@@H](O)C[C@@H](O)CC(=O)O[C@H]1C)C[C@H](O)[C@H]2C(=O)O [Amphotericin B] |  |  | 0.14 ± 0.01 µM |  |  |  | inhibition at 10 µM ([6]; read-out: % inhibition of LdCYP5122A1 at 10 μM): < 25%; Leishmanicidal vs. leishmanistatic effect [7]: leishmanicidal effect; inhibition at 10 µM ([8]; read-out: % inhibition of LdCYP51 at 10 μM): < 25% |
| c1ccc(-c2ccc(C(c3ccccc3)n3ccnc3)cc2)cc1 (stereo not shown) [Bifonazole] |  |  | 12 ± 1 µM | 0.33 ± 0.07 µM | 0.057 ± 0.008 µM | 5.7 |  |
| Clc1ccc(CCC(Cn2ccnc2)Sc2c(Cl)cccc2Cl)cc1 (stereo not shown) [Butoconazole] |  |  | 1.9 ± 0.4 µM | 0.32 ± 0.07 µM | 0.073 ± 0.008 µM | 4.4 | Leishmanicidal vs. leishmanistatic effect ([7]; listed as butaconazole): leishmanistatic effect |
| Clc1ccccc1C(c1ccccc1)(c1ccccc1)n1ccnc1 [Clotrimazole] | type II binding | type II binding |  | 0.26 ± 0.08 µM | 0.068 ± 0.004 µM |  | Sensitivity of CYP5122A1 mutants compared with Ld1S WT [10]: no significant differences; 4,14-Dimethylzymosterol level normalized to DMSO-treated parasites [11]: 43 ± 18; 4CH2OH-LS level normalized to DMSO-treated parasites [11]: 2.3 ± 0.5; 5-Dehydroepisterol level normalized to DMSO-treated parasites [11]: 0.20 ± 0.04; 7-Dehydrodesmosterol level normalized to DMSO-treated parasites [11]: 0^d,**; 14-Methylfecosterol level normalized to DMSO-treated parasites [11]: Accumulated^a,***; 14-Methylzymosterol level normalized to DMSO-treated parasites [11]: 2.3 ± 0.4; Cholesterol (exogenous) level normalized to DMSO-treated parasites [11]: 1.1 ± 0.2; Ergosta-5,7-dienol level normalized to DMSO-treated parasites [11]: 0.79 ± 0.26; Ergostatetraenol level normalized to DMSO-treated parasites [11]: 0 ^d,**; Ergosterol level normalized to DMSO-treated parasites [11]: 0.26 ± 0.07; FF-MAS level normalized to DMSO-treated parasites [11]: Not detected; Lanosterol level normalized to DMSO-treated parasites [11]: 2.7 ± 0.9; T-MAS level normalized to DMSO-treated parasites [11]: Not detected; Zymosterol level normalized to DMSO-treated parasites ([11]; not separated from cholesta-7,24-dienol): 0.018 ± 0.006; 4-Methylzymosterol level normalized to DMSO-treated parasites ([11]; not separated from episterol and fecosterol): 0.025 ± 0.013; Cholesta-7,24-dienol level normalized to DMSO-treated parasites ([11]; not separated from zymosterol): 0.018 ± 0.006; Growth inhibition of intracellular L. major and L. amazonensis [12]: strongly inhibited the growth |
| Clc1ccc(COC(Cn2ccnc2)c2ccc(Cl)cc2Cl)cc1 (stereo not shown) [Econazole] |  |  |  | 0.47 ± 0.13 µM | 0.046 ± 0.004 µM |  |  |
| CCC(C)n1ncn(-c2ccc(N3CCN(c4ccc(OCC5COC(Cn6cncn6)(c6ccc(Cl)cc6Cl)O5)cc4)CC3)cc2)c1=O (stereo not shown) [Itraconazole] |  |  | 6 ± 1.1 µM | 2.1 ± 0.4 µM | 0.049 ± 0.009 µM | 43 | Growth compared with control [13]: < 20% |
| Clc1ccc(COC(Cn2ccnc2)c2ccc(Cl)cc2Cl)c(Cl)c1 (stereo not shown) [Miconazole] |  |  |  | 1.1 ± 0.2 µM | 0.057 ± 0.003 µM |  | Growth inhibition of intracellular L. major and L. amazonensis [12]: strongly inhibited the growth |

Second part, led by results:

| Binding mode with CYP51 (difference binding spectrum) [2] | Binding mode with CYP5122A1 (difference binding spectrum) [4] | EC50 [5] | IC50 [6] | IC50 [8] | SI (selectivity index) = IC50 against LdCYP5122A1/IC50 against LdCYP51 [9] | Compound | further results |
| --- | --- | --- | --- | --- | --- | --- | --- |
|  |  | 15 ± 1 µM | 6.2 ± 1.7 µM | 0.068 ± 0.002 µM | 92 | C=C1CCN([C@H](C)[C@](O)(Cn2cncn2)c2ccc(F)cc2F)CC1 [Efinaconazole] |  |
| did not elicit any change | type I binding |  |  |  |  | CC(C)=CCC[C@@H](C)[C@H]1CC=C2C3=C(CC[C@@]21C)[C@@]1(C)CC[C@H](O)C(C)(C)[C@@H]1CC3 [FF-MAS, 14-demethyl-14-dehydrolanosterol] | Oxidation by reconstituted CYP5122A1 [1]: metabolized by this enzyme; Oxidation by reconstituted CYP51 [3]: no oxidation metabolites were detected |
|  |  | 12 µM | 2.6 ± 0.7 µM | 0.043 ± 0.007 µM | 60 | C[C@@H](c1nc(-c2ccc(C#N)cc2)cs1)[C@](O)(Cn1cncn1)c1cc(F)ccc1F [Isavuconazole] |  |
|  |  | 6.2 ± 0.5 µM |  |  |  | Clc1ccc(C(Cn2ccnc2)OCc2c(Cl)cccc2Cl)c(Cl)c1 (stereo not shown) [Isoconazole] |  |
|  |  | 22 ± 6 µM | 0.42 ± 0.05 µM |  | 8.7 | CC(=O)N1CCN(c2ccc(OCC3COC(Cn4ccnc4)(c4ccc(Cl)cc4Cl)O3)cc2)CC1 (stereo not shown) [Ketoconazole] | Growth compared with control [13]: < 20% |
| typical type I binding | type I binding |  |  |  |  | CC(C)=CCC[C@@H](C)[C@H]1CC[C@@]2(C)C3=C(CC[C@]12C)[C@@]1(C)CC[C@H](O)C(C)(C)[C@@H]1CC3 [Lanosterol] | Oxidation by reconstituted CYP5122A1 [1]: metabolized by this enzyme; Oxidation by reconstituted CYP51 [3]: C14-demethylation |
|  |  | 14 ± 1 µM |  |  |  | N=C(N)c1ccc(OCCCCCOc2ccc(C(=N)N)cc2)cc1 [Pentamidine] | Inhibition of LdCYP51 at 100 μM [14]: No inhibition at 100 μM; Inhibition of LdCYP5122A1 at 100 μM ([9]; 100 μM): No inhibition at 100 μM |
|  |  | 12 ± 2 µM | 12 ± 4 µM | 0.049 ± 0.008 µM | 248 | C[C@@H](c1nc(-c2ccc(C#N)cc2)cs1)[C@](O)(Cn1cncn1)c1ccc(F)cc1F [Ravuconazole] |  |
|  |  | 7.1 ± 0.5 µM | 1.1 ± 0.2 µM | 0.064 ± 0.007 µM | 17 | Clc1ccc(C(Cn2ccnc2)OCc2csc3c(Cl)cccc23)c(Cl)c1 (stereo not shown) [Sertaconazole] |  |
| did not elicit any change | type I binding |  |  |  |  | CC(C)=CCC[C@@H](C)[C@H]1CC[C@H]2C3=C(CC[C@]12C)[C@@]1(C)CC[C@H](O)C(C)(C)C1CC3 (stereo partly drawn) [T-MAS, 4,4-dimethylcholesta-8,24-dien-3β-ol] | Oxidation by reconstituted CYP5122A1 [1]: metabolized by this enzyme; Oxidation by reconstituted CYP51 [3]: no oxidation metabolites were detected |
|  |  | 13 ± 1 µM | 12 ± 3 µM | 0.083 ± 0.009 µM | 140 | CC(C)N1CCN(c2ccc(OCC3COC(Cn4cncn4)(c4ccc(Cl)cc4Cl)O3)cc2)CC1 (stereo not shown) [Terconazole] |  |
| atypical difference binding spectrum | did not induce any appreciable change |  |  |  |  | CC(C)=CCC[C@@H](C)[C@H]1CC[C@H]2C3=C(CC[C@]12C)[C@@]1(C)CC[C@H](O)C[C@@H]1CC3 [Zymosterol, 5α-Cholesta-8,24-dien-3β-ol] | Oxidation by reconstituted CYP5122A1 [1]: No oxidation metabolite formation; Oxidation by reconstituted CYP51 [3]: oxidized by CYP51 to form hydroxylated metabolites |
